Like-named read-outs stand apart in the source and are kept apart here.

The subject of data set [1] is pLAI reporter virus. In words: microbe, parasite or virus in culture. It counts as cell-based, HIV. The conditions noted are these: Human immunodeficiency virus 1, MT4, 72 h.
In data set [2] the test system is HIV-1 (IIIB). Briefly: microbe, parasite or virus in culture. The format is cell-based. The conditions noted are these: Human immunodeficiency virus 1, IIIB, MT4, 120 h, HIV-1 (IIIB) in MT-4 cells, 5 days incubation, Cell Titer Glo; read-out: MT4 EC50. For orientation: ATP-based viability assays read luminescence as a measure of living cells.
The nature of data set [3]: in vitro. The conditions noted are these: human, uninfected MT-4 cells.
The test system of data set [4] is G140S/Q148R. Briefly: HIV double mutant assay in MT-4 cells. The conditions noted are these: G140S/Q148R vs wild type HXB2, MT-4 cells, 5 day incubation. The format is cell-based. As for the experimental part: (§1) The HIV double mutant assay assesses the changes in efficacy of antiviral compounds against viral mutants compared to wild type. Each of the three mutant virus strains in this panel contain two amino acid substitutions ([…], E138K/Q148K and E92Q/N155H) of the parental HXB2. Test compounds and controls were serially diluted and spotted in replicates into 384 well black assay plates using acoustic transfer (Echo). Replicate sets of plates were made for each strain. MT-4 cells were grown in batch, centrifuged and resuspended in fresh CCM media (RPMI w/10% FBS, 1% PS) at 2×10^6 cells/ml. Cells were batch infected with each mutant strain at optimized volumes (currently HXB2 25 ul/ml; […], E138K/Q148K and E92Q/N155H at 40 ul/ml cells). The size of each infection mix was based on number of sample plates to be tested. Each infection mix was transferred into 5 ml closed tubes and nutated rapidly on a shaker at 37 deg. incubator for 1 hour. The infection mixes were then diluted 25× in fresh CCM media then added to assay plates at 40 ul per well using a Viaflo 384 pipettor. After 5 day incubation at 37 degrees in a CO2 incubator, assay plates were processed with Cell-titer glo reagent using a ViaFlo 384 with an addition/mixing program. Plates were read immediately on Envision reader. Assay signals were plotted and dose response curves generated to determine individual compound EC50s. The effect of each mutation was assessed by comparing EC50s of wild type and mutant strains.

Data set [5] deals with E138K/Q148K. Briefly: HIV double mutant assay in MT-4 cells. It counts as cell-based. The settings on record: E138K/Q148K vs wild type HXB2, MT-4 cells, 5 day incubation. How it is done:
as §1

For data set [6], the system named is E92Q/N155H. In words: HIV double mutant assay in MT-4 cells. It counts as cell-based. The settings on record: E92Q/N155H vs wild type HXB2, MT-4 cells, 5 day incubation. As for the experimental part:
as §1

`C[C@H]1CC[C@]2(CC(=O)NO2)[C@H]2CN1C(=O)c1c(O)c(=O)c(C(=O)NCc3ccc(F)cc3F)cn12` [Example 156, (3′S,5S,7′R)—N-(2,4-difluorobenzyl)-12′-hydroxy-3′-methyl-1′,3,11′-trioxo-1′,4′,5′,11′-tetrahydro-3′H,7′H-spiro[isoxazolidine-5,6′-[2,7]methanopyrido[1,2-a][1,4]diazonine]-10′-carboxamide]: the EC50 was determined as 79.8 nM in data set [1] (read-out: RLUC 50% HS EC50), 25 nM in data set [1] (read-out: RLUC CCM EC50) and 18.1 nM in data set [2]. The molecule further showed a CC50 at 5 days in data set [3] not below 50000 nM.

Take `CCN1O[C@@]2(CC[C@H](C)N3C[C@H]2n2cc(C(=O)NCc4c(F)cc(F)cc4F)c(=O)c(O)c2C3=O)CC1=O` [Example 157, (3′S,5S,7′R)-2-ethyl-12′-hydroxy-3′-methyl-1′,3,11′-trioxo-N-(2,4,6-trifluorobenzyl)-1′,4′,5′,11′-tetrahydro-3′H,7′H-spiro[isoxazolidine-5,6′-[2,7]methanopyrido[1,2-a][1,4]diazonine]-10′-carboxamide]: the EC50 was found to be 4.1 nM in data set [1] (read-out: RLUC 50% HS EC50), 0.3 nM in data set [1] (read-out: RLUC CCM EC50) and 1.1 nM in data set [2]. This molecule displayed a CC50 at 5 days in data set [3] not below 50000 nM.

For `C[C@H]1CC[C@]2(CC(=O)N(Cc3ccc(Br)cc3)O2)[C@H]2CN1C(=O)c1c(O)c(=O)c(C(=O)NCc3c(F)cc(F)cc3F)cn12` [Example 158, (3′S,5S,7′R)-2-(4-bromobenzyl)-12′-hydroxy-3′-methyl-1′,3,11′-trioxo-N-(2,4,6-trifluorobenzyl)-1′,4′,5′,11′-tetrahydro-3′H,7′H-spiro[isoxazolidine-5,6′-[2,7]methanopyrido[1,2-a][1,4]diazonine]-10′-carboxamide], the concentration giving a half-maximal response (EC50) in data set [1] (read-out: RLUC 50% HS EC50) stood at 3.2 nM; in data set [1] (read-out: RLUC CCM EC50) it was 0.8 nM; in data set [2], 1.7 nM. The CC50 at 5 days in data set [3] amounted to 2120 nM.

In the case of `C[C@H]1CC[C@]2(CC(=O)N(Cc3ccccn3)O2)[C@H]2CN1C(=O)c1c(O)c(=O)c(C(=O)NCc3c(F)cc(F)cc3F)cn12` [Example 159, (3′S,5S,7′R)-12′-hydroxy-3′-methyl-1′,3,11′-trioxo-2-(pyridin-2-ylmethyl)-N-(2,4,6-trifluorobenzyl)-1′,4′,5′,11′-tetrahydro-3′H,7′H-spiro[isoxazolidine-5,6′-[2,7]methanopyrido[1,2-a][1,4]diazonine]-10′-carboxamide], the results for the EC50 in data set [1] (read-out: RLUC 50% HS EC50), in data set [1] (read-out: RLUC CCM EC50) and in data set [2] were 1.1 nM, 0.8 nM and 1.8 nM, respectively. For the same molecule, the CC50 at 5 days in data set [3] was not below 50000 nM.

On to `C[C@H]1CC[C@]2(CC(=O)N(Cc3cccnc3)O2)[C@H]2CN1C(=O)c1c(O)c(=O)c(C(=O)NCc3c(F)cc(F)cc3F)cn12` [Example 160, (3′S,5S,7′R)-12′-hydroxy-3′-methyl-1′,3,11′-trioxo-2-(pyridin-3-ylmethyl)-N-(2,4,6-trifluorobenzyl)-1′,4′,5′,11′-tetrahydro-3′H,7′H-spiro[isoxazolidine-5,6′-[2,7]methanopyrido[1,2-a][1,4]diazonine]-10′-carboxamide], for which the results for the 50% effective concentration (EC50) in data set [1] (read-out: RLUC 50% HS EC50), in data set [1] (read-out: RLUC CCM EC50) and in data set [2] were 0.5 nM, 1.6 nM and 1.5 nM, respectively. Also, the cytotoxic concentration (CC50) at 5 days in data set [3] is not below 50000 nM.

Regarding `C[C@H]1CC[C@]2(CC(=O)N(Cc3nc4ccccc4s3)O2)[C@H]2CN1C(=O)c1c(O)c(=O)c(C(=O)NCc3c(F)cc(F)cc3F)cn12` [Example 161, (3′S,5S,7′R)-2-(benzo[d]thiazol-2-ylmethyl)-12′-hydroxy-3′-methyl-1′,3,11′-trioxo-N-(2,4,6-trifluorobenzyl)-1′,4′,5′,11′-tetrahydro-3′H,7′H-spiro[isoxazolidine-5,6′-[2,7]methanopyrido[1,2-a][1,4]diazonine]-10′-carboxamide], the figures for the EC50 in data set [1] (read-out: RLUC 50% HS EC50), in data set [1] (read-out: RLUC CCM EC50) and in data set [2] were 0.9 nM, 0.4 nM and 1.4 nM, respectively. In data set [3], the CC50 at 5 days is not below 50000 nM.

Take `C[C@H]1CC[C@]2(CC(=O)N(Cc3nc4ccccc4[nH]3)O2)[C@H]2CN1C(=O)c1c(O)c(=O)c(C(=O)NCc3c(F)cc(F)cc3F)cn12` [Example 162, (3′S,5S,7′R)-2-((1H-benzo[d]imidazol-2-yl)methyl)-12′-hydroxy-3′-methyl-1′,3,11′-trioxo-N-(2,4,6-trifluorobenzyl)-1′,4′,5′,11′-tetrahydro-3′H,7′H-spiro[isoxazolidine-5,6′-[2,7]methanopyrido[1,2-a][1,4]diazonine]-10′-carboxamide]: the results for the EC50 in data set [1] (read-out: RLUC 50% HS EC50), in data set [1] (read-out: RLUC CCM EC50) and in data set [2] were 5.7 nM, 1.4 nM and 3.6 nM, respectively. In data set [3], this molecule came in with a 50% cytotoxic concentration (CC50) at 5 days not below 50000 nM.

Turning to `C[C@H]1CC[C@]2(CC(=O)N(Cc3nc4ccccc4n3C)O2)[C@H]2CN1C(=O)c1c(O)c(=O)c(C(=O)NCc3c(F)cc(F)cc3F)cn12` [Example 163, (3′S,5S,7′R)-12′-hydroxy-3′-methyl-2-((1-methyl-1H-benzo[d]imidazol-2-yl)methyl)-1′,3,11′-trioxo-N-(2,4,6-trifluorobenzyl)-1′,4′,5′,11′-tetrahydro-3′H,7′H-spiro[isoxazolidine-5,6′-[2,7]methanopyrido[1,2-a][1,4]diazonine]-10′-carboxamide], the concentration for a half-maximal effect (EC50) in data set [1] (read-out: RLUC 50% HS EC50) is 2 nM; in data set [1] (read-out: RLUC CCM EC50), 0.9 nM; in data set [2], 1.5 nM. The same molecule showed a CC50 at 5 days in data set [3] not below 50000 nM.

In the case of `C[C@H]1CC[C@]2(CO2)[C@H]2CN1C(=O)c1c(O)c(=O)c(C(=O)NCc3c(F)cc(F)cc3F)cn12` [Example 165, (2R,3′S,7′R)-12′-hydroxy-3′-methyl-1′,11′-dioxo-N-(2,4,6-trifluorobenzyl)-1′,4′,5′,11′-tetrahydro-3′H,7′H-spiro[oxirane-2,6′-[2,7]methanopyrido[1,2-a][1,4]diazonine]-10′-carboxamide], the values for the EC50 in data set [1] (read-out: RLUC 50% HS EC50), in data set [1] (read-out: RLUC CCM EC50) and in data set [2] were 5.4 nM, 0.3 nM and 1.4 nM, respectively. The same molecule yielded a half-maximal cytotoxic concentration (CC50) at 5 days in data set [3] of 6590 nM.

Take `C[C@H]1CC[C@@]2(CO2)[C@H]2CN1C(=O)c1c(O)c(=O)c(C(=O)NCc3c(F)cc(F)cc3F)cn12` [Example 166, (2S,3′S,7′R)-12′-hydroxy-3′-methyl-1′,11′-dioxo-N-(2,4,6-trifluorobenzyl)-1′,4′,5′,11′-tetrahydro-3′H,7′H-spiro[oxirane-2,6′-[2,7]methanopyrido[1,2-a][1,4]diazonine]-10′-carboxamide]: the concentration for a half-maximal effect (EC50) in data set [1] (read-out: RLUC 50% HS EC50) amounted to 1.3 nM; in data set [1] (read-out: RLUC CCM EC50), 0.2 nM; in data set [2], 0.9 nM. The molecule further had a CC50 at 5 days in data set [3] of 4600 nM.

In the case of `COC[C@H]1CO[C@]2(CC[C@H](C)N3C[C@H]2n2cc(C(=O)NCc4c(F)cc(F)cc4F)c(=O)c(O)c2C3=O)O1` [Example 167, (2R,3′S,4S,7′R)-12′-hydroxy-4-(methoxymethyl)-3′-methyl-1′,11′-dioxo-N-(2,4,6-trifluorobenzyl)-1′,4′,5′,11′-tetrahydro-3′H,7′H-spiro[[1,3]dioxolane-2,6′-[2,7]methanopyrido[1,2-a][1,4]diazonine]-10′-carboxamide], the concentration for a half-maximal effect (EC50) in data set [1] (read-out: RLUC 50% HS EC50) stood at 8.7 nM; in data set [1] (read-out: RLUC CCM EC50), 0.6 nM; in data set [2], 1.7 nM. In addition, half-maximal cytotoxicity in data set [3] (CC50 at 5 days) was put at 35800 nM.

Take `O=C(NCc1ccc(F)cc1F)c1cn2c(c(O)c1=O)C(=O)N1CCCC3(CC3)[C@H]2C1` [Reference Compound C, reference compound]: the results for the EC50 in data set [1] (read-out: RLUC 50% HS EC50), in data set [1] (read-out: RLUC CCM EC50) and in data set [2] were 2 nM, 0.25 nM and 1.2 nM, respectively. Further, the “Double Mutant Shift (fold over wild type)” value in data set [4] stood at 5×; in data set [5], 3×; in data set [6], 2×.

Usually EC50 stands for the concentration at which the effect is half-maximal. The CC50 is the concentration at which the toxic effect on the cells reaches its halfway point. High values mean better tolerance by the cells, low ones harm at low concentration.
